In brackets after ≈: the same amount, converted by molar mass. Where two headings read alike, the source gives them in different places. Ends that are not written are not given here. Peptide text beside a SMILES is read from it.
How the values were obtained:
[1] = tested on: HDFa cells; test: MTT assay on HDFa normal cells, 48 h; type: cell-based, human; settings: for IC50 Value: mean ± SD
Protocol: DMEM medium supplemented with 10% fetal bovine serum (FBS) and 1% penicillin-streptomycin (10,000 U/mL) (complete media) was prepared to culture MCF-7 and HDFa cells in T25 flasks at 37°C in a CO2 incubator. Once the cells had adhered and grown to 70%–90% confluence within 24–48 h, they were transferred to new flasks. 2 mL of 0.25% trypsin was added to detach the cells, which were then incubated for 5 min at 37°C. The trypsin activity was stopped by adding 2 mL of complete media. The detached cells were collected into a tube and centrifuged at 1,500 rpm for 5 min. After removing the supernatant, 3 mL of media was added to resuspend the cell pellet. 20 μL of suspended cells were mixed with 20 µL of 0.4% trypan blue for staining and cell counting. 100 μL of suspended cells in complete media, containing approximately 10^4 cells, were added to each well of a 96-well plate and incubated for 24 h to allow cell attachment. Peptides (PEP20, PEP24, PEP63, PEP66, PEP67, and PEP74) at various concentrations (200, 100, 50, 25, 12.5, 6.25 μg/mL) were then added to the media in each well. Each concentration was repeated three times. After a 48-h incubation period at 37°C, the peptide-treated medium was replaced with 100 µL of 0.5 mg/mL MTT and incubated for 4 h at 37°C in the dark. Following removal of the MTT and addition of 100 µL of DMSO, the absorbance of each well in the 96-well plate was measured at 595 nm using an ELISA reader (Bio-RAD microplate reader, Japan) ([Ali et al., 2018]; [Salim et al., 2022]).
The percentage viability was calculated by multiplying the absorbance of treated cells by 100 and dividing the absorbance of untreated cells. The viability of untreated cells is considered 100%. The each concentration of each peptide and cisplatin was repeated triplicate. The unite of cell viability and IC50 are percentage and μg/mL. The viability and IC50 of the treated cells are expressed as the mean ± standard deviation (SD). GraphPad Prism software (version 9.0, San Diego, CA, United States) was used to calculate the IC50 values of the peptides, […], and their combination.

[2] = tested on: MCF-7 cells; design: % of inhibition of MCF-7: dose or concentration left out as unconfirmed; settings: for IC50 Range / IC50 Value: MCF-7, MTT; for IC50 Value: mean ± SD
Protocol: DMEM medium supplemented with 10% fetal bovine serum (FBS) and 1% penicillin-streptomycin (10,000 U/mL) (complete media) was prepared to culture MCF-7 and HDFa cells in T25 flasks at 37°C in a CO2 incubator. Once the cells had adhered and grown to 70%–90% confluence within 24–48 h, they were transferred to new flasks. 2 mL of 0.25% trypsin was added to detach the cells, which were then incubated for 5 min at 37°C. The trypsin activity was stopped by adding 2 mL of complete media. The detached cells were collected into a tube and centrifuged at 1,500 rpm for 5 min. After removing the supernatant, 3 mL of media was added to resuspend the cell pellet. 20 μL of suspended cells were mixed with 20 µL of 0.4% trypan blue for staining and cell counting. 100 μL of suspended cells in complete media, containing approximately 10^4 cells, were added to each well of a 96-well plate and incubated for 24 h to allow cell attachment. […] Each concentration was repeated three times. After a 48-h incubation period at 37°C, the peptide-treated medium was replaced with 100 µL of 0.5 mg/mL MTT and incubated for 4 h at 37°C in the dark. Following removal of the MTT and addition of 100 µL of DMSO, the absorbance of each well in the 96-well plate was measured at 595 nm using an ELISA reader (Bio-RAD microplate reader, Japan) ([Ali et al., 2018]; [Salim et al., 2022]).
The percentage viability was calculated by multiplying the absorbance of treated cells by 100 and dividing the absorbance of untreated cells. The viability of untreated cells is considered 100%. The each concentration of each peptide and cisplatin was repeated triplicate. The unite of cell viability and IC50 are percentage and μg/mL. The viability and IC50 of the treated cells are expressed as the mean ± standard deviation (SD). GraphPad Prism software (version 9.0, San Diego, CA, United States) was used to calculate the IC50 values of the peptides, mitotane, and their combination.

[3] = IC50 of HDFa related to IC50 of MCF-7

Compound	IC50 Range [1]	SI (selectivity index) [2, 3]	IC50 Range ([2]; 48 h)	IC50 Value ([2]; 48 h)	other results
N.N.[Cl][Pt][Cl] [Cisplatin, reference compound]	5.650 to 7.856 µg/mL	1.565	3.581 to 5.055 µg/mL	4.255 ± 0.738 µg/mL	IC50 Value [1]: 6.663 ± 1.10 µg/mL; IC50 Value ([1]; listed as cisplatin): 6.66 µg/mL; IC50 Value ([2]; 48 h, listed as cisplatin): 4.25 µg/mL
CSCC[C@H](NC(=O)[C@H](CC(C)C)NC(=O)[C@H](Cc1ccccc1)NC(=O)[C@H](C)NC(=O)[C@H](CS)NC(=O)[C@H](C)NC(=O)[C@H](CCC(=O)O)NC(=O)[C@H](CC(C)C)NC(=O)[C@H](CC(C)C)NC(=O)[C@@H]1CCCN1C(=O)[C@H](CO)NC(=O)[C@@H](NC(=O)[C@H](CO)NC(=O)[C@@H](N)CS)[C@@H](C)O)C(=O)N[C@@H](CCCNC(=N)N)C(=O)O [PEP66, CSTSPLLEACAFLMR] (H-CSTSPLLEACAFLMR-OH; N-terminus and C-terminus assumed)	137.2 to 206.9 µg/mL	3.19	46.73 to 59.71 µg/mL	52.82 ± 6.49 µg/mL (≈ 32.2 µM)	% of inhibition of MCF-7 ([2]; concentration (Figure 6)): 76.90%; percentage of MCF7 inhibition ([2]; dose of 200 μg/mL): 77%
LFFPALLSLGALGLCLAASK [PEP67]	–	–	–	–	SI (selectivity index) [2]: 0.6
PWNHIKRYF [PEP24, PWNHIKRYF]	–	–	–	–	IC50 ([2]; 48 h): > 200 µg/mL

Reference: publication PMC11612555, “Impact of camel milk lactoferrin peptides against breast cancer cells: in silico and in vitro study” (Frontiers in Pharmacology, 2024)
